# Measured values reported in PubChem BioAssay (NCI).
#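 Values below derive from 48-hour exposures of cells grown in 96-well plates, with endpoints linearly interpolated between the two concentrations bracketing the appropriate inhibition level. GI50: concentration for 50% inhibition of growth. The concentration for full growth arrest is given as TGI.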
# Experiments:
# Experiment in all cases: growth of human tumour cells (NCI), 48 h
# 786-0 renal = system: 786-0 renal
# A498 renal = system: A498 renal
# A549 NSCLC = system: A549 NSCLC
# ACHN renal = system: ACHN renal
# BT-549 breast = system: BT-549 breast
# CAKI-1 renal = system: CAKI-1 renal
# CCRF-CEM leukemia = system: CCRF-CEM leukemia
# COLO 205 colon = system: COLO 205 colon
# DU-145 prostate = system: DU-145 prostate
# EKVX NSCLC = system: EKVX NSCLC
# HCC-2998 colon = system: HCC-2998 colon
# HCT-116 colon = system: HCT-116 colon
# HCT-15 colon = system: HCT-15 colon
# HL-60(TB) leukemia = system: HL-60(TB) leukemia
# HOP-92 NSCLC = system: HOP-92 NSCLC
# IGROV1 ovarian = system: IGROV1 ovarian
# K-562 leukemia = system: K-562 leukemia
# KM12 colon = system: KM12 colon
# LOX IMVI melanoma = system: LOX IMVI melanoma
# M14 melanoma = system: M14 melanoma
# MALME-3M melanoma = system: MALME-3M melanoma
# MCF7 breast = system: MCF7 breast
# MDA-MB-231 breast = system: MDA-MB-231 breast
# MDA-MB-435 = system: MDA-MB-435
# MDA-N = system: MDA-N
# MOLT-4 leukemia = system: MOLT-4 leukemia
# NCI-H226 lung = system: NCI-H226 lung
# NCI-H23 lung = system: NCI-H23 lung
# NCI-H460 lung = system: NCI-H460 lung
# NCI-H522 lung = system: NCI-H522 lung
# NCI/ADR-RES ovarian = system: NCI/ADR-RES ovarian
# OVCAR-3 ovarian = system: OVCAR-3 ovarian
# OVCAR-4 ovarian = system: OVCAR-4 ovarian
# OVCAR-5 ovarian = system: OVCAR-5 ovarian
# OVCAR-8 ovarian = system: OVCAR-8 ovarian
# PC-3 prostate = system: PC-3 prostate
# RPMI-8226 leukemia = system: RPMI-8226 leukemia
# RXF 393 renal = system: RXF 393 renal
# SF-295 CNS = system: SF-295 CNS
# SF-539 CNS = system: SF-539 CNS
# SK-MEL-2 melanoma = system: SK-MEL-2 melanoma
# SK-MEL-28 melanoma = system: SK-MEL-28 melanoma
# SK-MEL-5 melanoma = system: SK-MEL-5 melanoma
# SK-OV-3 ovarian = system: SK-OV-3 ovarian
# SN12C renal = system: SN12C renal
# SNB-19 CNS = system: SNB-19 CNS
# SNB-75 CNS = system: SNB-75 CNS
# SR leukemia = system: SR leukemia
# SW-620 colon = system: SW-620 colon
# TK-10 renal = system: TK-10 renal
# U251 CNS = system: U251 CNS
# UACC-257 melanoma = system: UACC-257 melanoma
# UACC-62 melanoma = system: UACC-62 melanoma
# UO-31 renal = system: UO-31 renal
# HOP-62 NSCLC = system: HOP-62 NSCLC
# HT29 colon = system: HT29 colon
# SF-268 CNS = system: SF-268 CNS
# T-47D breast = system: T-47D breast
# HS 578T breast = system: HS 578T breast
smiles,measurement,setting,value
CC1(C)OC(CCO)CN1C(=O)OCc1ccccc1 (stereo not drawn),TGI,786-0 renal,> 100 µM
same,TGI,A498 renal,> 100 µM
same,TGI,A549 NSCLC,> 100 µM
same,TGI,ACHN renal,> 100 µM
same,TGI,BT-549 breast,> 100 µM
same,TGI,CAKI-1 renal,> 100 µM
same,TGI,CCRF-CEM leukemia,> 100 µM
same,TGI,COLO 205 colon,> 100 µM
same,TGI,DU-145 prostate,> 100 µM
same,TGI,EKVX NSCLC,> 100 µM
same,TGI,HCC-2998 colon,> 100 µM
same,TGI,HCT-116 colon,> 100 µM
same,TGI,HCT-15 colon,> 100 µM
same,TGI,HL-60(TB) leukemia,> 100 µM
same,TGI,HOP-92 NSCLC,> 100 µM
same,TGI,IGROV1 ovarian,> 100 µM
same,TGI,K-562 leukemia,> 100 µM
same,TGI,KM12 colon,> 100 µM
same,TGI,LOX IMVI melanoma,> 100 µM
same,TGI,M14 melanoma,> 100 µM
same,TGI,MALME-3M melanoma,> 100 µM
same,TGI,MCF7 breast,> 100 µM
same,TGI,MDA-MB-231 breast,> 100 µM
same,TGI,MDA-MB-435,> 100 µM
same,TGI,MDA-N,> 100 µM
same,TGI,MOLT-4 leukemia,> 100 µM
same,TGI,NCI-H226 lung,> 100 µM
same,TGI,NCI-H23 lung,> 100 µM
same,TGI,NCI-H460 lung,> 100 µM
same,TGI,NCI-H522 lung,> 100 µM
same,TGI,NCI/ADR-RES ovarian,> 100 µM
same,TGI,OVCAR-3 ovarian,> 100 µM
same,TGI,OVCAR-4 ovarian,> 100 µM
same,TGI,OVCAR-5 ovarian,> 100 µM
same,TGI,OVCAR-8 ovarian,> 100 µM
same,TGI,PC-3 prostate,> 100 µM
same,TGI,RPMI-8226 leukemia,> 100 µM
same,TGI,RXF 393 renal,> 100 µM
same,TGI,SF-295 CNS,> 100 µM
same,TGI,SF-539 CNS,> 100 µM
same,TGI,SK-MEL-2 melanoma,> 100 µM
same,TGI,SK-MEL-28 melanoma,> 100 µM
same,TGI,SK-MEL-5 melanoma,> 100 µM
same,TGI,SK-OV-3 ovarian,> 100 µM
same,TGI,SN12C renal,> 100 µM
same,TGI,SNB-19 CNS,> 100 µM
same,TGI,SNB-75 CNS,> 100 µM
same,TGI,SR leukemia,> 100 µM
same,TGI,SW-620 colon,> 100 µM
same,TGI,TK-10 renal,> 100 µM
same,TGI,U251 CNS,> 100 µM
same,TGI,UACC-257 melanoma,> 100 µM
same,TGI,UACC-62 melanoma,> 100 µM
same,TGI,UO-31 renal,> 100 µM
CCN(CC)CCCNc1ccc([N+](=O)[O-])c2nc3ccc(OC)cc3c(NCCCN(CC)CC)c12,TGI,786-0 renal,2.76 µM
same,TGI,A549 NSCLC,3.73 µM
same,TGI,CAKI-1 renal,> 10 µM
same,TGI,CCRF-CEM leukemia,7.37 µM
same,TGI,COLO 205 colon,> 10 µM
same,TGI,DU-145 prostate,> 10 µM
same,TGI,EKVX NSCLC,> 10 µM
same,TGI,HCC-2998 colon,3.03 µM
same,TGI,HCT-15 colon,2.79 µM
same,TGI,HL-60(TB) leukemia,1.04 µM
same,TGI,HOP-62 NSCLC,> 10 µM
same,TGI,HT29 colon,3.42 µM
same,TGI,IGROV1 ovarian,> 10 µM
same,TGI,K-562 leukemia,3.75 µM
same,TGI,KM12 colon,3.05 µM
same,TGI,LOX IMVI melanoma,2.69 µM
same,TGI,M14 melanoma,> 10 µM
same,TGI,MALME-3M melanoma,> 10 µM
same,TGI,MCF7 breast,3.56 µM
same,TGI,MDA-MB-231 breast,2.84 µM
same,TGI,MDA-N,> 10 µM
same,TGI,NCI-H23 lung,4.76 µM
same,TGI,OVCAR-8 ovarian,2.7 µM
same,TGI,PC-3 prostate,2.9 µM
same,TGI,RPMI-8226 leukemia,5.81 µM
same,TGI,RXF 393 renal,4.05 µM
same,TGI,SF-268 CNS,> 10 µM
same,TGI,SK-MEL-28 melanoma,> 10 µM
same,TGI,SK-MEL-5 melanoma,> 10 µM
same,TGI,SK-OV-3 ovarian,> 10 µM
same,TGI,SN12C renal,5.89 µM
same,TGI,SNB-75 CNS,> 10 µM
same,TGI,SW-620 colon,3.98 µM
same,TGI,T-47D breast,> 10 µM
same,TGI,TK-10 renal,> 10 µM
same,TGI,UACC-257 melanoma,> 10 µM
same,TGI,UACC-62 melanoma,> 10 µM
FC(F)(F)c1ccc2c(Nc3cccc(C4CC(c5ccccc5)=NN4c4ccc(Cl)cc4)c3)ccnc2c1 (stereo not drawn),GI50,786-0 renal,2.73 µM
same,TGI,786-0 renal,10.7 µM
same,GI50,A498 renal,9.9 µM
same,TGI,A498 renal,45.6 µM
same,GI50,A549 NSCLC,10.7 µM
same,TGI,A549 NSCLC,44.8 µM
same,GI50,ACHN renal,2.9 µM
same,TGI,ACHN renal,11.1 µM
same,GI50,BT-549 breast,2.29 µM
same,TGI,BT-549 breast,7.4 µM
same,GI50,CCRF-CEM leukemia,3.32 µM
same,TGI,CCRF-CEM leukemia,38.5 µM
same,GI50,COLO 205 colon,10.7 µM
same,TGI,COLO 205 colon,> 100 µM
same,GI50,DU-145 prostate,3.61 µM
same,TGI,DU-145 prostate,15.4 µM
same,GI50,EKVX NSCLC,10.9 µM
same,TGI,EKVX NSCLC,59.5 µM
same,GI50,HCC-2998 colon,1.96 µM
same,TGI,HCC-2998 colon,4.01 µM
same,GI50,HCT-116 colon,1.62 µM
same,TGI,HCT-116 colon,3.63 µM
same,GI50,HCT-15 colon,1.61 µM
same,TGI,HCT-15 colon,4.26 µM
same,GI50,HL-60(TB) leukemia,4.04 µM
same,TGI,HL-60(TB) leukemia,18.8 µM
same,GI50,HOP-92 NSCLC,3.21 µM
same,TGI,HOP-92 NSCLC,40.5 µM
same,GI50,HS 578T breast,4.43 µM
same,TGI,HS 578T breast,43.2 µM
same,GI50,HT29 colon,3.3 µM
same,TGI,HT29 colon,12.5 µM
same,GI50,IGROV1 ovarian,2.57 µM
same,TGI,IGROV1 ovarian,11 µM
same,GI50,K-562 leukemia,3.31 µM
same,TGI,K-562 leukemia,14.3 µM
same,GI50,KM12 colon,3.16 µM
same,TGI,KM12 colon,16.7 µM
same,GI50,LOX IMVI melanoma,1.68 µM
same,TGI,LOX IMVI melanoma,3.81 µM
same,GI50,M14 melanoma,3.93 µM
same,TGI,M14 melanoma,22 µM
same,GI50,MALME-3M melanoma,4.38 µM
same,TGI,MALME-3M melanoma,21 µM
same,GI50,MCF7 breast,1.67 µM
same,TGI,MCF7 breast,10.6 µM
same,GI50,MDA-MB-231 breast,3.88 µM
same,TGI,MDA-MB-231 breast,15.9 µM
same,GI50,MDA-MB-435,2.97 µM
same,TGI,MDA-MB-435,11.6 µM
same,GI50,MOLT-4 leukemia,3.6 µM
same,TGI,MOLT-4 leukemia,19.5 µM
same,GI50,NCI-H226 lung,15 µM
same,TGI,NCI-H226 lung,36.2 µM
same,GI50,NCI-H23 lung,4.22 µM
same,TGI,NCI-H23 lung,25.3 µM
same,GI50,NCI-H460 lung,4.08 µM
same,TGI,NCI-H460 lung,17.2 µM
same,GI50,NCI-H522 lung,6.16 µM
same,TGI,NCI-H522 lung,38.6 µM
same,GI50,NCI/ADR-RES ovarian,2.63 µM
same,TGI,NCI/ADR-RES ovarian,10.3 µM
same,GI50,OVCAR-3 ovarian,2.21 µM
same,TGI,OVCAR-3 ovarian,6.02 µM
same,GI50,OVCAR-4 ovarian,4.99 µM
same,TGI,OVCAR-4 ovarian,28.9 µM
same,GI50,OVCAR-5 ovarian,4.13 µM
same,TGI,OVCAR-5 ovarian,20.5 µM
same,GI50,OVCAR-8 ovarian,3.57 µM
same,TGI,OVCAR-8 ovarian,19.7 µM
same,GI50,PC-3 prostate,3.77 µM
same,TGI,PC-3 prostate,16.6 µM
same,GI50,RPMI-8226 leukemia,2.3 µM
same,TGI,RPMI-8226 leukemia,6.46 µM
same,GI50,RXF 393 renal,4.82 µM
same,TGI,RXF 393 renal,20.1 µM
same,GI50,SF-268 CNS,3.35 µM
same,TGI,SF-268 CNS,21.5 µM
same,GI50,SF-295 CNS,2.25 µM
same,TGI,SF-295 CNS,8.67 µM
same,GI50,SF-539 CNS,4.78 µM
same,TGI,SF-539 CNS,19.5 µM
same,GI50,SK-MEL-2 melanoma,15.1 µM
same,TGI,SK-MEL-2 melanoma,42.9 µM
same,GI50,SK-MEL-28 melanoma,4.54 µM
same,TGI,SK-MEL-28 melanoma,18.3 µM
same,GI50,SK-MEL-5 melanoma,8.77 µM
same,TGI,SK-MEL-5 melanoma,26.5 µM
same,GI50,SK-OV-3 ovarian,11.2 µM
same,TGI,SK-OV-3 ovarian,36.4 µM
same,GI50,SN12C renal,2.96 µM
same,TGI,SN12C renal,14.6 µM
same,GI50,SNB-19 CNS,4.38 µM
same,TGI,SNB-19 CNS,27 µM
same,GI50,SNB-75 CNS,2.67 µM
same,TGI,SNB-75 CNS,20.8 µM
same,GI50,SR leukemia,1.26 µM
same,TGI,SR leukemia,9.41 µM
same,GI50,SW-620 colon,2.79 µM
same,TGI,SW-620 colon,8.34 µM
same,GI50,T-47D breast,5.93 µM
same,TGI,T-47D breast,37.4 µM
same,GI50,TK-10 renal,4.76 µM
same,TGI,TK-10 renal,21.4 µM
same,GI50,U251 CNS,3.24 µM
same,TGI,U251 CNS,14.4 µM
same,GI50,UACC-257 melanoma,11.2 µM
same,TGI,UACC-257 melanoma,32.6 µM
same,GI50,UACC-62 melanoma,2.64 µM
same,TGI,UACC-62 melanoma,10.6 µM
same,GI50,UO-31 renal,1.82 µM
same,TGI,UO-31 renal,9.68 µM
